Laboratory results as given in ChEMBL document CHEMBL1201861, “Genomics of Drug Sensitity in Cancer screening data, Wellcome Trust Sanger Institute”.

How the values were obtained:
Experiment in all cases: cells
COR-L88 = type: functional, cell-based; conditions: Homo sapiens;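 further: growth inhibition of COR-L88 cells, read out with a cell viability assay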
Description: SANGER: Inhibition of human COR-L88 cell growth in a cell viability assay.

Ca9-22 = type: functional, cell-based, Homo sapiens; conditions: Homo sapiens, Ca9-22;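 further: growth inhibition of Ca9-22 cells, read out with a cell viability assay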
Description: SANGER: Inhibition of human Ca9-22 cell growth in a cell viability assay.

D-336MG = type: functional, cell-based, Homo sapiens; conditions: Homo sapiens, D-336MG
Description: SANGER: Inhibition of human D-336MG cell growth in a cell viability assay.

D-542MG = type: functional, cell-based, Homo sapiens; conditions: Homo sapiens, D-542MG
Description: SANGER: Inhibition of human D-542MG cell growth in a cell viability assay.

EFO-27 = type: functional, cell-based, Homo sapiens; conditions: Homo sapiens, EFO-27;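 further: growth inhibition of EFO-27 cells, read out with a cell viability assay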
Description: SANGER: Inhibition of human EFO-27 cell growth in a cell viability assay.

EM-2 = type: functional, cell-based; conditions: Homo sapiens;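 further: growth inhibition of EM-2 cells, read out with a cell viability assay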
Description: SANGER: Inhibition of human EM-2 cell growth in a cell viability assay.

ES7 = type: functional, cell-based, Homo sapiens; conditions: Homo sapiens, ES7;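 further: growth inhibition of cultured human ES7 cells, read out as cell viability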
Description: SANGER: Inhibition of human ES7 cell growth in a cell viability assay.

FaDu = type: functional, cell-based, Homo sapiens; conditions: Homo sapiens, FaDu;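 further: cell viability readout of growth inhibition in FaDu cells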
Description: SANGER: Inhibition of human FADU cell growth in a cell viability assay.

GR-ST = type: functional, cell-based; conditions: Homo sapiens
Description: SANGER: Inhibition of human GR-ST cell growth in a cell viability assay.

HSC-2 = type: functional, cell-based, Homo sapiens; conditions: Homo sapiens, HSC-2;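 further: growth inhibition of human HSC-2 cells, read out by a cell viability assay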
Description: SANGER: Inhibition of human HSC-2 cell growth in a cell viability assay.

HTC-C3 = type: functional, cell-based, Homo sapiens; conditions: Homo sapiens, HTC-C3;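 further: inhibition of cell growth, read out with a cell viability assay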
Description: SANGER: Inhibition of human HTC-C3 cell growth in a cell viability assay.

HuCCT-1 = type: functional, cell-based, Homo sapiens, HuCCT1; conditions: Homo sapiens, HuCCT-1;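 further: growth inhibition of HuCCT-1 cells, read out by a cell viability assay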
Description: SANGER: Inhibition of human HuCCT1 cell growth in a cell viability assay.

KLE = type: functional, cell-based, Homo sapiens; conditions: Homo sapiens, KLE;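 further: growth inhibition of human KLE cells, read out with a cell viability assay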
Description: SANGER: Inhibition of human KLE cell growth in a cell viability assay.

KM12 = type: functional, cell-based, Homo sapiens; conditions: Homo sapiens, KM12;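 further: KM12 cell growth inhibition, read out with a cell viability assay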
Description: SANGER: Inhibition of human KM12 cell growth in a cell viability assay.

KNS-42 = type: functional, cell-based, Homo sapiens; conditions: Homo sapiens, KNS-42;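 further: growth inhibition of KNS-42 cells, read out with a cell viability assay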
Description: SANGER: Inhibition of human KNS-42 cell growth in a cell viability assay.

KP-4 = type: functional, cell-based, Homo sapiens; conditions: Homo sapiens, KP-4; read-out: IC50;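 further: human KP-4 cells, with growth inhibition read out through a cell viability assay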
Description: SANGER: Inhibition of human KP-4 cell growth in a cell viability assay.

KP-N-YS = type: functional, cell-based; conditions: Homo sapiens;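 further: cell viability assay measuring inhibition of cell line growth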
Description: SANGER: Inhibition of human KP-N-YS cell growth in a cell viability assay.

KYSE-180 = type: functional, cell-based, Homo sapiens; conditions: Homo sapiens, KYSE-180;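 further: growth inhibition of KYSE-180 cells, read out with a cell viability assay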
Description: SANGER: Inhibition of human KYSE-180 cell growth in a cell viability assay.

LB996-RCC = type: functional, cell-based; conditions: Homo sapiens
Description: SANGER: Inhibition of human LB996-RCC cell growth in a cell viability assay.

LCLC-103H cell line = type: functional, cell-based, Homo sapiens; conditions: Homo sapiens, LCLC-103H
Description: SANGER: Inhibition of human LCLC-103H cell growth in a cell viability assay.

M059J = type: functional, cell-based, Homo sapiens; conditions: Homo sapiens, M059J;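 further: growth inhibition of M059J cells, read out with a cell viability assay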
Description: SANGER: Inhibition of human M059J cell growth in a cell viability assay.

MDA-MB-175-VII = type: functional, cell-based, Homo sapiens; conditions: Homo sapiens, MDA-MB-175-VII
MDA-MB-361 = type: functional, cell-based, Homo sapiens; conditions: Homo sapiens, MDA-MB-361
MDA-MB-415 = type: functional, cell-based; conditions: Homo sapiens
MKN-7 = type: functional, cell-based, Homo sapiens; conditions: Homo sapiens, MKN-7;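 further: growth inhibition of MKN-7 cells, read out with a cell viability assay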
Description: SANGER: Inhibition of human MKN7 cell growth in a cell viability assay.

MSTO-211H = type: functional, cell-based, Homo sapiens; conditions: Homo sapiens, MSTO-211H
Description: SANGER: Inhibition of human MSTO-211H cell growth in a cell viability assay.

NCI-H1437 = type: functional, cell-based, Homo sapiens; conditions: Homo sapiens, NCI-H1437;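 further: growth inhibition of human NCI-H1437 cells, read out by a cell viability assay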
Description: SANGER: Inhibition of human NCI-H1437 cell growth in a cell viability assay.

NCI-H1563 = type: functional, cell-based, Homo sapiens; conditions: Homo sapiens, NCI-H1563;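 further: growth inhibition of human NCI-H1563 cells, read out with a cell viability assay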
Description: SANGER: Inhibition of human NCI-H1563 cell growth in a cell viability assay.

NCI-H358 = type: functional, cell-based, Homo sapiens; conditions: Homo sapiens, NCI-H358;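 further: growth inhibition of NCI-H358 human cells, read out with a cell viability assay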
Description: SANGER: Inhibition of human NCI-H358 cell growth in a cell viability assay.

NMC-G1 = type: functional, cell-based, Homo sapiens; conditions: Homo sapiens, NMC-G1;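 further: growth inhibition of the NMC-G1 cell line, measured with a cell viability read-out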
Description: SANGER: Inhibition of human NMC-G1 cell growth in a cell viability assay.

NOS-1 = type: functional, cell-based, Homo sapiens; conditions: Homo sapiens, NOS-1;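 further: growth inhibition of the human NOS-1 cell line, read out with a cell viability assay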
Description: SANGER: Inhibition of human NOS-1 cell growth in a cell viability assay.

OAW-28 = type: functional, cell-based, Homo sapiens; conditions: Homo sapiens, OAW-28;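 further: growth inhibition of OAW-28 cells, read out with a cell viability assay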
Description: SANGER: Inhibition of human OAW-28 cell growth in a cell viability assay.

PFSK-1 = type: functional, cell-based, Homo sapiens; conditions: Homo sapiens, PFSK-1;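 further: cell viability assay measuring how strongly compounds suppress growth of human PFSK-1 cells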
Description: SANGER: Inhibition of human PFSK-1 cell growth in a cell viability assay.

RPMI-2650 = type: functional, cell-based, Homo sapiens; conditions: Homo sapiens, RPMI-2650
Description: SANGER: Inhibition of human RPMI-2650 cell growth in a cell viability assay.

Ramos-2G6-4C10 = type: functional, cell-based; conditions: Homo sapiens;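 further: growth inhibition of the cell line, measured by a cell viability read-out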
Description: SANGER: Inhibition of human Ramos-2G6-4C10 cell growth in a cell viability assay.

SK-HEP1 = type: functional, cell-based, Homo sapiens, SK-HEP-1; conditions: Homo sapiens, SK-HEP1;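 further: cell viability readout used to quantify reduction in proliferation of human SK-HEP-1 cells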
Description: SANGER: Inhibition of human SK-HEP-1 cell growth in a cell viability assay.

SK-MEL-30 = type: functional, cell-based; conditions: Homo sapiens;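 further: growth inhibition of SK-MEL-30 cells, determined with a cell viability assay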
Description: SANGER: Inhibition of human SK-MEL-30 cell growth in a cell viability assay.

SNU-C2B = type: functional, cell-based, Homo sapiens; conditions: Homo sapiens, SNU-C2B;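 further: cell viability readout used to measure compound-driven suppression of SNU-C2B cell proliferation, IC50 marking half-maximal growth inhibition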
Description: SANGER: Inhibition of human SNU-C2B cell growth in a cell viability assay.

SW982 = type: functional, cell-based; conditions: Homo sapiens;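 further: growth inhibition of SW982 cells, read out with a cell viability assay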
Description: SANGER: Inhibition of human SW982 cell growth in a cell viability assay.

8-MG-BA = type: functional, cell-based, Homo sapiens; conditions: Homo sapiens, 8-MG-BA;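 further: growth inhibition of 8-MG-BA cells, read out with a cell viability assay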
Description: SANGER: Inhibition of human 8-MG-BA cell growth in a cell viability assay.

8505C = type: functional, cell-based, Homo sapiens; conditions: Homo sapiens, 8505C
Description: SANGER: Inhibition of human 8505C cell growth in a cell viability assay.

A204 = type: functional, cell-based, Homo sapiens; conditions: Homo sapiens, A204;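 further: growth inhibition of human A204 cells, read out with a cell viability assay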
Description: SANGER: Inhibition of human A204 cell growth in a cell viability assay.

ACHN = type: functional, cell-based, Homo sapiens; conditions: Homo sapiens, ACHN;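 further: cell viability read-out used to gauge how strongly growth of human ACHN cells is suppressed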
Description: SANGER: Inhibition of human ACHN cell growth in a cell viability assay.

BHY = type: functional, cell-based, Homo sapiens; conditions: Homo sapiens, BHY;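 further: cell growth inhibition read out by a viability assay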
Description: SANGER: Inhibition of human BHY cell growth in a cell viability assay.

CAKI-1 = type: functional, cell-based, Homo sapiens; conditions: Homo sapiens, CAKI-1;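 further: growth inhibition of CAKI-1 cells, measured by a cell viability assay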
Description: SANGER: Inhibition of human CAKI-1 cell growth in a cell viability assay.

TE-11 = type: functional, cell-based, Homo sapiens; conditions: Homo sapiens, TE-11;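 further: growth inhibition of human TE-11 cells, read out by a cell viability assay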
Description: SANGER: Inhibition of human TE-11 cell growth in a cell viability assay.

TE-12 = type: functional, cell-based; conditions: Homo sapiens;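 further: growth inhibition of TE-12 cells, read out by a cell viability assay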
Description: SANGER: Inhibition of human TE-12 cell growth in a cell viability assay.

WM-115 = type: functional, cell-based, Homo sapiens; conditions: Homo sapiens, WM-115
Description: SANGER: Inhibition of human WM-115 cell growth in a cell viability assay.

COLO-678 = type: functional, cell-based, Homo sapiens; conditions: Homo sapiens, COLO-678
Description: SANGER: Inhibition of human COLO-678 cell growth in a cell viability assay.

COLO-680N = type: functional, cell-based, Homo sapiens; conditions: Homo sapiens, COLO-680N;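 further: cell viability assay used to measure inhibition of COLO-680N cell growth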
Description: SANGER: Inhibition of human COLO-680N cell growth in a cell viability assay.

Measured: IC50

CC(=O)O[C@@H]1[C@@H](OC(C)=O)[C@@H](O)[C@H](Oc2c(-c3ccc(O)cc3)oc3cc(O)cc(O)c3c2=O)O[C@H]1C
> 10 µM: COR-L88 | Ca9-22 | D-336MG | D-542MG | EFO-27 | EM-2 | ES7 | FaDu | GR-ST | HSC-2 | HTC-C3 | HuCCT-1 | KLE | KM12 | KNS-42 | KP-4 | KP-N-YS | KYSE-180 | LB996-RCC | LCLC-103H cell line | M059J | MDA-MB-175-VII | MDA-MB-361 | MDA-MB-415 | MKN-7 | MSTO-211H | NCI-H1437 | NCI-H1563 | NCI-H358 | NMC-G1 | NOS-1 | OAW-28 | PFSK-1 | RPMI-2650 | Ramos-2G6-4C10 | SK-HEP1 | SK-MEL-30 | SNU-C2B | SW982 | 8-MG-BA | 8505C | A204 | ACHN | BHY | CAKI-1 | TE-11 | TE-12 | WM-115 | COLO-678 | COLO-680N
